Test system: HCV replicon in HUH-7 cells
Test: HCV replicon FRET assay
Assay type: cell-based, HCV strain 1b
Conditions: Hepatitis C virus, 96 h, 4 days
From the text: An HCV replicon whole cell system was established as described by Lohmann V, Korner F, Koch J, Herian U, Theilmann L, Bartenschlager R., Science 285(5424): 110-3 (1999). This system enabled us to evaluate the effects of our HCV Protease compounds on HCV RNA replication. Briefly, using the HCV strain 1b sequence described in the Lohmann paper (Assession number: AJ238799), an HCV cDNA was synthesized by Operon Technologies, Inc. (Alameda, Calif.), and the full-length replicon was then assembled in plasmid pGem9zf(+) (Promega, Madison, Wis.) using standard molecular biology techniques. […]
The HCV replicon FRET assay was developed to monitor the inhibitory effects of compounds described in the disclosure on HCV viral replication. […] After 4 days, cells were first assessed for cytotoxicity using alamar Blue (Trek Diagnostic Systems) for a CC50 reading. The toxicity of compound (CC50) was determined by adding 1/10th volume of alamar Blue to the media incubating the cells. After 4 hours, the fluorescence signal from each well was read, with an excitation wavelength at 530 nm and an emission wavelength of 580 nm, using the Cytofluor Series 4000 (Perspective Biosystems). […]

CC(C)(C)OC(=O)N[C@H]1CN(C2CC2)CCC/C=C\C2C[C@@]2(C(=O)NS(=O)(=O)C2CC2)NC(=O)[C@@H]2C[C@@H](Oc3ccccn3)CN2C1=O (stereo partly shown) [Compound 1]
EC50: 1090 nM
